Laboratory results as given in patent publication US4233309A, “Novel 1-substituted-3-acylpyrrole derivatives, platelet aggregation inhibitors containing them, as active ingredients, and processes for production of said derivatives” (Teijin Limited, priority 1977, dated 1980).
In brackets after ≈: the same amount, converted by molar mass. Read-outs that look alike come from different tables or passages of the source.

Legend:
[1] = test system: platelet aggregation (platelet-rich plasmas (PRP) of guinea pigs); test: Activity of inhibiting platelet aggregation in vitro, guinea pig PRP, sodium arachidonate as aggregating agent (Table 1); assay type: cell-based, Hartley-strain male guinea pigs; conditions: Cavia porcellus, sodium arachidonate 0.03 mM final, 37° C., final concentration, read-out: IC50 (minimum concentration of drug which showed a percent inhibition of more than 50%)
Description: (§1) Some 1-substituted-3-acylpyrrole derivatives and other drugs were tested for platelet aggregation inhibiting activities in vitro using platelet-rich plasmas (PRP) of man and guinea pigs. The results are shown as minimum concentration of drugs which inhibit more than 50% of platelet aggregation induced by several aggregating agents.
(§2) In experiments with PRP of guinea pigs, sodium arachidonate (final concentration 0.03 mM) was used as an aggregating agent. In experiments with human PRP, sodium arachidonate (final concentration 0.1 mM), collagan suspension (final concentration 10 μg/ml), epinephrine solution (final concentration 20 μg/ml; for secondary aggregation), an epinephrine solution (final concentration 2 μg/ml; for primary aggregation) and ADP (final concentration 5 μM) were used as aggregating agents.
In an experiment with guinea pig PRP, citrated blood (containing 0.38% sodium citrate as a final concentration) was withdrawn by cardiac puncture from Hartley-strain male guinea pigs having a body weight of 350 to 600 g. The citrated blood was centrifuged at 1,000 rpm for 10 minutes at room temperature, and the supernatant platelet suspension (PRP) was separated.
The PRP was stored at room temperature, and used as soon as possible. Those which had been stored for more than 4 hours after preparation were not used.
(§3) For each test, a drug is dissolved in dimethylsulfoxide to a concentration of 10 mg/ml, and diluted with physiological saline to form 1 ml each of solutions having a concentration of 2500 μg/ml, 1000 μg/ml, 750 μg/ml, 500 μg/ml, 250 μg/ml and 100 μg/ml. A compound having a free carboxylic acid as a residue such as indomethacine and Ibprofen was dissolved in 0.1 M NaHCO3 to form a sodium salt solution having a concentration of 10 mg/ml. Then, the solution was diluted with physiological saline in the same way as above to form a test drug solution.
(§4) Arachidonic acid (99% pure, a product of Sigma Co., Ltd.) was dissolved in 0.1 M NaHCO3, and a 3.3 mM solution of sodium arachidonate was prepared. The solution was diluted with physiological saline to a concentration of 1 mM and used in the experiments. The 3.3 mM solution was stored in a refrigerator as a stock solution, and the 1 mM solution was newly prepared from the stock solution every time it was used.
(§5) Physiological saline (50 μl) and 50 μl of the aggregating agent solution were added to 400 μl of PRP which had been pre-warmed and stirred at 37° C. in a quvett set in a holder of an aggregometer. Platelet aggregation was thus initiated, and the change of light transmittance through a stirred platelet suspension was recorded for 3 minutes by a recorder joined to the aggregometer. An increase in transmittance after 3 minutes (T0) was used as a parameter of the rate of platelet aggregation in control experiments.
(§6) To 400 μl of PRP in a quvett was added 50 μl of a test drug solution. The mixture was pre-incubated and stirred for 2 minutes at 37° C. Then 50 μl of the aggregating agent was added to drug containing PRP and again aggregation responses were recorded as increases in light transmittance after 3 minutes (T1) in the same way as in (1) above. Percent inhibition was calculated from the formula [formula]
For the above in vitro test for the inhibition of platelet aggregation, reference may be had to H. M. Davis, J. Phyllis, K. Paul and W. Terry: Thromb. Res. 11, 217-226 (1977) and R. E. Anderson and J. G. Foulks: Thromb. Haemos. 36, 343-359 (1976).

[2] = test system: biosynthesis of prostaglandins (microsomes of the seminal vesicle of bovine); test: Inhibitory effect on prostaglandin biosynthesis in vitro (Table 3); assay type: biochemical; conditions: 4 μg/ml sodium arachidonate, bioassay on rat fundus stomach strips
Description: Sprangue-Dawley rats (male, 180-200 g) were fasted overnight, and killed by blow on the head. The stomach was isolated, and fundus stomach strips were prepared. The smooth muscle strips were perfused with Krebs-Hensleit solution (gassed with 95% O2 +5% CO2 gas) of 37° C. at a rate of […]. The Krebs-Hensleit solution contained 0.1 μg/ml of atropine, 0.1 μg/ml of phenoxybenzamine, 3 μg/ml of propranolol, 0.1 μg/ml of tripelennamine, and 0.2 μg/ml of methylsergide to prevent the effect of smooth muscle contracting substances, and 1 μg/ml of indomethacine to inhibit the biosynthesis of prostaglandin by the smooth muscles. Then, 150 μl of a reaction solution containing biologically synthesized prostaglandin was added to the perfusion solution, and the amount of the biologically synthesized prostaglandin was measured from the contraction of the smooth muscles. The contraction of the smooth muscles was recorded on a recorder using an isotonic transducer.
The reaction solution containing biologically synthesized prostaglandin was prepared in the following manner.
To 0.4 mg/ml of microsomes of the seminal vesicle of bovine were added 5 mM of L-tryptophan, 0.025 μM of bovine hemoglobin and 3 mμ of glutathione as cofactors. The mixture was incubated together with each of the test compounds shown in Table 4 at 37° C. for 2 minutes, and immediately then, 4 μg/ml of sodium arachidonate was added. The mixture was further incubated at 37° C. for 10 minutes, and immediately then, the prostaglandin activity of the reaction solution was measured by bioassay.
The microsomes of the seminal vesicle of bovine had been prepared by suspending microsomes of the seminal vesicle of bovine (a product of Miles Laboratories, Inc.) in a 50 mM Tris.HCl buffer (pH 7.4) using a glass homogenizer, and stored in ice water prior to use.
ID50 denotes the concentration of each test compound required to inhibit the biosynthesis of prostaglandins by 50%.

[3] = test system: platelet aggregation (guinea pig PRP, extra vivo); test: Inhibitory effect of compounds on platelet aggregation in extra vivo (Table 4); design: species or system Hartley-strain guinea pigs; conditions: Cavia porcellus, 100 mg/kg, route PS [sic], 1 h
Description: The effect of the compounds shown in Table 4 on platelet aggregation was assessed using guinea pig in extra vivo.
Each of the test compounds was dissolved in propylene glycol so that its concentration became 100 mg/ml (dosage corresponded to 100 mg/kg) and 30 mg/ml (dosage corresponded to 30 mg/kg). The drug solution was administered either orally or subcutaneously to Hartley-strain guinea pigs (3 per group) having a body weight of 300 to 350 g. As a control, propylene glycol was administered. One hour after the administration, citrated blood was taken out by cardiac puncture, and centrifuged to obtain PRP (see Example 67).
In the case of oral administration, the animals had been fasted overnight.
Into a quvett set in a holder of an aggregometer and prewarmed at 37° C. with stirring, was put 450 μl of the above PRP, and then 50 μl of an aggregating agent was added. The aggregation curve was recorded for an additional 3 minutes, and an increase in light transmittance through PRP after 3 minutes (TB) was recorded (see Example 67). As a control, an increase of transmittance of PRP taken from a guinea pig group administered with propylene glycol alone (TA) was recorded in the same way above. The percent inhibitions were calculated in accordance with the following equation. [formula]
As the aggregating agent, sodium arachidonate (a final concentraton of 0.03 mM) and a collagen suspension (a final concentration of 5 μg/ml) were used.
The percent inhibitions in the above table are averages of three guinea pigs. For details of the above extra vivo test about inhibition of platelet aggregation, the literature references described in Example 67 may be referred to.

[4] = test system: carrageenan edema; test: Antiinflammatory activity (carrageenan edema of rat paw, Table 5); assay type: in vivo, Sprangue-Dawley (SD) male rats; conditions: 3 h after 1% carrageenan
Description: Sprangue-Dawley (SD) male rats with a body weight of 160 to 180 g, four in each group, were used. The volume of the left leg was measured, and each of the test compounds shown in Table 5 (100 mg/kg dissolved in polyethylene glycol so as to provide a volume of 2 ml/kg) was orally administered. One hour later, 0.1 ml of 1% carrageenan (dissolved in physiological saline) as an inflammation-inducing substance was subcutaneously injected to the paw of the left hind leg. A control group was orally administered with 2 ml/kg of polyethylene glycol. As a positive control, 25 mg/kg of Ibprofen was similarly administered. Three hours after the injection of 1% carrageenan, the volume of the left leg was measured, and the ratio of edema was calculated from the volume before the administration of the carrageenan. The percent inhibition of edema in comparison with the control group was determined.

[5] = test system: platelet aggregation (human PRP); test: Activity of inhibiting platelet aggregation in vitro, human PRP, several aggregating agents (Table 2); assay type: cell-based, human (healthy volunteers)
Description: as §1, §2
In the experiment using human PRP, heapinized blood (containing 20 IU/ml of heparin) was taken from the cubital vein of healthy volunteers, and centrifuged at 1,000 rpm at room temperature for 10 minutes. The supernatant platelet suspension (PRP) was separated.
as §3, §4
The collagen suspension (made by Hormon-Chemie, West Germany) was diluted with physiological saline to a concentraton of 100 μg/ml.
Epinephrine hydrogen tartarate was dissolved in physiological saline to form solutions having a concentration of 200 μg/ml (corresponding to a final concentration of 2 μg/ml).
Disodium salt of ADP was dissolved in a 0.1 M tris-hydrochloric acid buffer to form a 50 μM solution (corresponding to a final concentraton of 5 μM).
as §5
as §6, with “[formula] […]” for “[formula]”

[6] = collagen 5 μg/ml, read-out: Percent inhibition of platelet aggregation, collagen
[7] = sodium arachidonate 0.03 mM, read-out: Percent inhibition of platelet aggregation, sodium arachidonate

| SMILES | IC50 [1] [µg/mL] | ID50 (concentration required to inhibit the biosynthesis of prostaglandins by 50%) [2] [µg/mL] | inhibition at 100 mg/kg [3, 6] [%] | inhibition at 100 mg/kg [3, 7] [%] | further results |
| --- | --- | --- | --- | --- | --- |
| COCCn1c(C)cc(C(=O)c2ccccc2C)c1C [Compound 238, 2-(3-o-methylbenzoyl-2,5-dimethylpyrrol-1-yl) ethyl methyl ether] | 10 (≈ 36.9 µM) | – | – | – | – |
| Cc1cc(C(=O)c2ccccc2)c(C)n1C(C)COC(=O)c1ccccc1 (stereo not shown) [Compound 314, 2-(3-benzoyl-2,5-dimethylpyrrol-1-yl)-2-methylethyl benzoate] | 1 (≈ 2.77 µM) | 56.0 | – | – | – |
| CC(=O)OCC(C)n1c(C)cc(C(=O)c2ccccc2)c1C (stereo not shown) [Compound 306, 2-(3-benzoyl-2,5-dimethylpyrrol-1-yl)-2-methylethyl acetate] | 7.5 | 5.6 | 34 | 62 | Percent inhibition of edema ([4]; 100 mg/kg orally): 16% |
| CC(=O)Oc1ccccc1C(=O)O [Acetylsalicylic acid, reference compound] | – | – | 41 | 77 | – |
| CCOC(=O)C(C)n1c(C)cc(C(=O)c2ccccc2)c1C (stereo not shown) [Compound 706, ethyl 2-(3-benzoyl-2,5-dimethylpyrrol-1-yl) propionate] | 1 (≈ 3.34 µM) | 20.0 | – | – | – |
| Cc1cc(C(=O)c2ccccc2)c(C)n1[C@H](C)CO [Compound 110, (2R)-2-(3-benzoyl-2,5-dimethylpyrrol-1-yl)-2-methylethanol] | 1 (≈ 3.89 µM) | – | 90 | 96 | – |
| CC(C)Cc1ccc(C(C)C(=O)O)cc1 (stereo not shown) [Ibprofen, reference compound] | – | – | – | – | Percent inhibition of edema (positive control) ([4]; 25 mg/kg): 51% |
| COCCn1c(C)cc(C(=O)c2cccs2)c1C [Compound 252, 2-[3-(2-thenoyl)-2,5-dimethylpyrrol-1-yl]-ethyl methyl ether] | 2.5 (≈ 9.49 µM) | – | – | – | – |
| COC(c1ccccc1)C(C)n1c(C)cc(C(=O)c2ccccc2)c1C (stereo not shown) [Compound 218, 2-(3-benzoyl-2,5-dimethylpyrrol-1-yl)-2-methyl-1-phenylethyl methyl ether] | 5 (≈ 14.4 µM) | – | – | – | – |
| CC(=O)OC(c1ccccc1)C(C)n1c(C)cc(C(=O)c2ccccc2)c1C (stereo not shown) [Compound 328, 2-(3-benzoyl-2,5-dimethylpyrrol-1-yl)-2-methyl-1-phenylethyl acetate] | 2.5 | – | – | – | – |
| Cc1cc(C(=O)c2ccccc2)c(C)n1CCO [Compound 100, 2-(3-benzoyl-2,5-dimethylpyrrol-1-yl)-ethanol] | 5 (≈ 20.6 µM) | 145.3 | – | – | – |
| Cc1cc(C(=O)c2ccccc2)c(C)n1C(C)C(N)=O (stereo not shown) [Compound 802, 2-(3-benzoyl-2,5-dimethylpyrrol-1-yl)propionamide] | 5 (≈ 18.5 µM) | – | 40 | 100 | – |
| Cc1cc(C(=O)c2ccccc2)c(C)n1CCSc1ccccc1 [Compound 404, 2-(3-benzoyl-2,5-dimethylpyrrol-1-yl)ethyl phenyl sulfide] | 2.5 (≈ 7.45 µM) | – | – | – | – |
| CCCCC(=O)OCC(C)n1c(C)cc(C(=O)c2ccccc2)c1C (stereo not shown) [Compound 310, 2-(3-benzoyl-2,5-dimethylpyrrol-1-yl)-2-methylethyl valerate] | 2.5 (≈ 7.32 µM) | 11.5 | – | – | – |
| Cc1cc(C(=O)c2ccccc2)c(C)n1[C@@H](C)CO [Compound 108, (2S)-2-(3-benzoyl-2.5-dimethylpyrrol-1-yl)-2-methylethanol] | 5 (≈ 19.4 µM) | – | 14 | 62 | – |
| COc1ccc2c(c1)c(CC(=O)O)c(C)n2C(=O)c1ccc(Cl)cc1 [Indomethacine] | 5 (≈ 14 µM) | 0.6 | – | – | IC50 ([5]; ADP 5 μM, read-out: IC50, aggregation by ADP): 10 µg/mL (≈ 27.9 µM); IC50 ([5]; arachidonate 0.1 mM, read-out: IC50, aggregation by arachidonate): 1 µg/mL (≈ 2.79 µM); IC50 ([5]; collagen 10 μg/ml, read-out: IC50, aggregation by collagen): 10 µg/mL (≈ 27.9 µM); IC50 ([5]; epinephrine 2 μg/ml, primary aggregation, read-out: IC50, aggregation by epinephrine, primary): 10 µg/mL (≈ 27.9 µM); IC50 ([5]; epinephrine 20 μg/ml, secondary aggregation, read-out: IC50, aggregation by epinephrine, secondary): 1 µg/mL (≈ 2.79 µM) |
